In patent publication US10689429B2, “Double-acylated GLP-1 compounds” (Novo Nordisk A/S, priority 2014, dated 2020):

What was measured:
human GLP-1 receptor = target: T1, human GLP-1 receptor (Homo sapiens, UniProt P43220); assay: In vitro potency, CRE luciferase reporter gene assay in BHK cells expressing the human GLP-1 receptor; format: cell-based; settings: average of duplicates;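 further: firefly luciferase luminescence read after 3 h incubation at 37 °C, compounds tested in an eight-point series from 0.01 pM to 100 nM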
T1 construct: expressed in transfected cells; host or cells: membranes from BHK cells, parent line BHKTS13, clone FCW467-12A
T1 sequence (P43220 24-463): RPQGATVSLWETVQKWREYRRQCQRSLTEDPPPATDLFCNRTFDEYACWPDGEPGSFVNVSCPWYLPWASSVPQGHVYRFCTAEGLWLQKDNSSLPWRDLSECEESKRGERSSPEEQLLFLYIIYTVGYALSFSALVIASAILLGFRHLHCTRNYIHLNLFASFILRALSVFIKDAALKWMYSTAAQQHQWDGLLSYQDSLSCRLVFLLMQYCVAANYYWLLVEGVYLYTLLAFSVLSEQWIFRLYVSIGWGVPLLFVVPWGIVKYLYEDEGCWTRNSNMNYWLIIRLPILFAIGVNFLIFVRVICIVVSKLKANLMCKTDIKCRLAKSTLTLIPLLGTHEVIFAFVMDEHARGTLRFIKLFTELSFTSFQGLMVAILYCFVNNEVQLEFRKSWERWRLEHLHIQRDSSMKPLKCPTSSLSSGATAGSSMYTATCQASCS

[1] = Pharmacokinetic study in mini pigs after i.v. administration; format: in vivo; settings: female, Göttingen, pig, plasma, iv, 2 nmol/kg; read-out: Minipig iv PK, t½ (converted)
Experimental: The purpose of this study is to determine the protraction in vivo of the GLP-1 derivatives after i.v. administration to mini pigs, i.e. the prolongation of their time in the body and thereby their time of action. This was done in pharmacokinetic (PK) studies, where the terminal half-life of the derivative in question was determined. By terminal half-life is generally meant the period of time it takes to halve a certain plasma concentration, measured after the initial distribution phase.
Female Göttingen mini pigs obtained from Ellegaard Göttingen Minipigs (Dalmose, Denmark) at approximately 5 months of age and weighing approximately 10 kg were used in the studies. The mini pigs were housed in pens with straw as bedding, four to six together in each pen and fed restrictedly once or twice daily with Altromin 9023 mini pig diet (Chr. Petersen A/S, DK-4100 Ringsted). The pigs were used for repeated pharmacokinetic studies with a suitable wash-out period between successive GLP-1 derivative dosings. An acclimatisation period of 1 week was allowed during which time the mini pigs were trained to be fixated on the back for blood sampling and in slings for i.v. dosing. All handling, dosing and blood sampling of the animals was performed by trained and skilled staff.
The GLP-1 derivatives were dissolved in 50 mM sodium phosphate, 70 mM sodium chloride, 0.05% tween 80, pH 7.4 to a concentration of approximately 20 nmol/ml. Intravenous injections (the volume corresponding to usually 2 nmol/kg, for example 0.1 ml/kg) of the compounds were given as intravenous injections via a Venflon inserted in an ear vein, while the animals were placed un-anaesthetised in a sling. The dose volume was 0.1 ml/kg, and blood was sampled at predefined time points for up till 13 days post dosing (samples were taken with a syringe from a jugular vein). Blood samples (for example 0.8 ml) were collected in EDTA buffer (8 mM) and then centrifuged at 4° C. and 2000 G for 10 minutes.
Individual plasma concentration-time profiles were analysed by a non-compartmental model in WinNonlin v. […] 6.2 or 6.3 (Pharsight Inc., Mountain View, Calif., USA), or other relevant software for PK analysis, and the resulting terminal half-lives determined.

[2] = Pharmacokinetic studies in Beagle dogs (i.v. and p.o.); format: in vivo; settings: dog, plasma; for half-life: iv, 2 nmol/kg, read-out: Beagle dogs iv PK, t½ (converted)
Experimental: Pharmacokinetic (PK) studies in Beagle dogs were conducted in order to determine a) the protraction of the GLP-1 derivatives after i.v. administration, and b) the bioavailability of the GLP-1 derivatives after p.o. administration.
By protraction is meant the prolongation of the time in the body and thereby the time of action of the GLP-1 derivatives. This was done in pharmacokinetic (PK) studies, where the terminal half-life of the derivative in question was determined. By terminal half-life is generally meant the period of time it takes to halve a certain plasma concentration, measured after the initial distribution phase.
The dogs were housed in pens (12 hours light: 12 hours dark) with softwood based granules as bedding, two together in each pen and fed restrictedly once daily with […] ™ Struvite Management Diet (Dechra Veterinary Products, UK). Exercise was permitted daily, whenever possible. The dogs were used for repeated pharmacokinetic studies with a suitable wash-out period between successive GLP-1 derivative dosings. An acclimatisation period of 4 weeks was allowed during which time the dogs were trained. All handling, dosing and blood sampling of the animals was performed by trained and skilled staff. The dogs were fasted overnight before dosing and from 0 to 4 h after dosing, but had ad libitum access to water during the whole period.
The dogs were housed in social groups (12 hours light: 12 hours dark), and fed individually and restrictedly once daily with Royal Canin Medium Adult dog (Royal Canin Products, China Branch, or Brogaarden A/S, Denmark). Exercise and group social was permitted daily, whenever possible. The dogs were used for repeated pharmacokinetic studies with a suitable wash-out period between successive GLP-1 derivative dosings. An appropriate acclimatisation period was given prior to initiation of the first pharmacokinetic study. All handling, dosing and blood sampling of the animals was performed by trained and skilled staff. Before the studies the dogs were fasted overnight and from 0 to 4 h after dosing. […]

[3] = EC50/pM (1% HSA), 1% HSA final assay concentration

Q: For `CC[C@H](C)[C@H](NC(=O)[C@H](Cc1ccccc1)NC(=O)[C@H](CCC(=O)O)NC(=O)[C@H](CCCNC(=N)N)NC(=O)[C@H](C)NC(=O)[C@H](C)NC(=O)[C@H](CCC(N)=O)NC(=O)[C@H](CCC(=O)O)NC(=O)[C@H](CCC(=O)O)NC(=O)[C@H](CC(C)C)NC(=O)[C@H](Cc1ccc(O)cc1)NC(=O)[C@H](CO)NC(=O)[C@H](CO)NC(=O)[C@@H](NC(=O)[C@H](CC(=O)O)NC(=O)[C@H](CO)NC(=O)[C@@H](NC(=O)[C@H](Cc1ccccc1)NC(=O)[C@@H](NC(=O)CNC(=O)[C@H](CCC(=O)O)NC(=O)C(C)(C)NC(=O)[C@@H](N)Cc1c[nH]cn1)[C@@H](C)O)[C@@H](C)O)C(C)C)C(=O)N[C@@H](C)C(=O)N[C@@H](Cc1c[nH]c2ccccc12)C(=O)N[C@@H](CC(C)C)C(=O)N[C@H](C(=O)N[C@@H](CCCNC(=N)N)C(=O)NCC(=O)N[C@@H](CCCCNC(=O)COCCOCCNC(=O)COCCOCCNC(=O)CC[C@H](NC(=O)CCCCCCCCCOc1cccc(C(=O)O)c1)C(=O)O)C(=O)N[C@@H](CCCCNC(=O)COCCOCCNC(=O)COCCOCCNC(=O)CC[C@H](NC(=O)CCCCCCCCCOc1cccc(C(=O)O)c1)C(=O)O)C(=O)O)C(C)C` [Example 15, N{Epsilon-36}-[2-[2-[2-[[2-[2-[2-[[(4S)-4-carboxy-4-[10-(3-carboxyphenoxy)decanoylamino]butanoyl]amino]ethoxy]ethoxy]acetyl]amino]ethoxy]ethoxy]acetyl], N{Epsilon-37}-[2-[2-[2-[[2-[2-[2-[[(4S)-4-carboxy-4-[10-(3-carboxyphenoxy)decanoylamino]butanoyl]amino]ethoxy]ethoxy]acetyl]amino]ethoxy]ethoxy]acetyl]-[Aib8,Glu22,Arg26,Arg34,Lys36,Lys37]-GLP-1-(7-37)-peptide], which EC50 (human GLP-1 receptor; EC50/pM (0% HSA), 0% HSA) is on record?
A: 6.1 pM

Q: And the EC50 (human GLP-1 receptor; [3])?
A: 44 pM

Q: What about the half-life [1] of the same molecule?
A: 144 h

Q: What about the half-life [2] of the same molecule?
A: 111 h

Q: Which results are given for `CC[C@H](C)[C@H](NC(=O)[C@H](Cc1ccccc1)NC(=O)[C@H](CCC(=O)O)NC(=O)[C@H](CCCNC(=N)N)NC(=O)[C@H](C)NC(=O)[C@H](C)NC(=O)[C@H](CCC(N)=O)NC(=O)[C@H](CCC(=O)O)NC(=O)[C@H](CCC(=O)O)NC(=O)[C@H](CC(C)C)NC(=O)[C@H](Cc1ccc(O)cc1)NC(=O)[C@H](CO)NC(=O)[C@H](CO)NC(=O)[C@@H](NC(=O)[C@H](CC(=O)O)NC(=O)[C@H](CO)NC(=O)[C@@H](NC(=O)[C@H](Cc1ccccc1)NC(=O)[C@@H](NC(=O)CNC(=O)[C@H](CCC(=O)O)NC(=O)C(C)(C)NC(=O)[C@@H](N)Cc1c[nH]cn1)[C@@H](C)O)[C@@H](C)O)C(C)C)C(=O)N[C@@H](C)C(=O)N[C@@H](Cc1c[nH]c2ccccc12)C(=O)N[C@@H](CC(C)C)C(=O)N[C@H](C(=O)N[C@@H](CCCNC(=N)N)C(=O)NCC(=O)N[C@@H](CCCCNC(=O)COCCOCCNC(=O)COCCOCCNC(=O)CC[C@H](NC(=O)CCCCCCCCCCOc1ccc(C(=O)O)cc1)C(=O)O)C(=O)N[C@@H](CCCCNC(=O)COCCOCCNC(=O)COCCOCCNC(=O)CC[C@H](NC(=O)CCCCCCCCCCOc1ccc(C(=O)O)cc1)C(=O)O)C(=O)O)C(C)C` [Example 1, N{Epsilon-36}-[2-[2-[2-[[2-[2-[2-[[(4S)-4-carboxy-4-[11-(4-carboxyphenoxy)undecanoylamino]butanoyl]amino]ethoxy]ethoxy]acetyl]amino]ethoxy]ethoxy]acetyl], N{Epsilon-37}-[2-[2-[2-[[2-[2-[2-[[(4S)-4-carboxy-4-[11-(4-carboxyphenoxy)undecanoylamino]butanoyl]amino]ethoxy]ethoxy]acetyl]amino]ethoxy]ethoxy]acetyl]-[Aib8,Glu22,Arg26,Arg34,Lys36,Lys37]-GLP-1-(7-37)-peptide]?
A: EC50 (human GLP-1 receptor; EC50/pM (0% HSA), 0% HSA): 1.2 pM; EC50 (human GLP-1 receptor; [3]): 136 pM; half-life [1]: 103 h; half-life [2]: 85 h; bioavailability ([2]; po, absolute bioavailability (F), enteric coated sodium caprate tablet with approximately 10 mg derivative (Example 33)): 2.4%
